# Columns and labels:
# Experiment in all cases: relative viability (nuclei count vs DMSO), 5 days (fraction); higher = more cells survive
# NCI-H1793 = tested on: NCI-H1793
# How it was run: (§1)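 After 5 days of treatment, lung cancer cells in 1536-well plates were fixed and stained in a single step (final 0.05% Triton X-100, 1% formaldehyde, 1 ug/ml Hoechst) and their nuclei counted on 4× images. Treatment had been applied by pin tool the day after seeding as one drug alone or as a fixed anchor-drug dose with five library-drug doses (not always all listed) in √10 steps. Relative viability is the nuclei count of treated wells divided by that of vehicle wells, and values are medians of duplicate plates.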
# BEN = tested on: BEN
# How it was run: as §1
# NCI-H1792 = tested on: NCI-H1792
# How it was run: as §1
# NCI-H727 = tested on: NCI-H727
# How it was run: as §1
# HCC-827 = tested on: HCC-827
# How it was run: as §1
# LCLC-97TM1 = tested on: LCLC-97TM1
# How it was run: as §1
# NCI-H1650 = tested on: NCI-H1650
# How it was run: as §1
# NCI-H322M = tested on: NCI-H322M
# How it was run: as §1
# RERF-LC-KJ = tested on: RERF-LC-KJ
# How it was run: as §1
# NCI-H2228 = tested on: NCI-H2228
# How it was run: as §1
# LCLC-103H = tested on: LCLC-103H
# How it was run: as §1
# NCI-H2405 = tested on: NCI-H2405
# How it was run: as §1
# NCI-H1944 = tested on: NCI-H1944
# How it was run: as §1
# NCI-H647 = tested on: NCI-H647
# How it was run: as §1
# LXF-289 = tested on: LXF-289
# How it was run: as §1
# SK-LU-1 = tested on: SK-LU-1
# How it was run: as §1
# NCI-H1395 = tested on: NCI-H1395
# How it was run: as §1
# NCI-H3122 = tested on: NCI-H3122
# How it was run: as §1
# 201T = tested on: 201T
# How it was run: as §1
# CAL-12T = tested on: CAL-12T
# How it was run: as §1
# NCI-H1437 = tested on: NCI-H1437
# How it was run: as §1
# NCI-H2087 = tested on: NCI-H2087
# How it was run: as §1
structure (smiles),measurement,setting,value
O=c1cc(-c2cccc3c2Sc2ccccc2S3)oc(N2CCOCC2)c1 + O=C(c1cc(Cc2n[nH]c(=O)c3ccccc23)ccc1F)N1CCN(C(=O)C2CC2)CC1 [Olaparib] (partner 8 µM),relative viability,NCI-H1793; first compound 0.08 µM,0.815
same,relative viability,NCI-H1793; first compound 0.253 µM,1.08
same,relative viability,NCI-H1793; first compound 0.8 µM,0.899
same,relative viability,NCI-H1793; first compound 2.53 µM,0.721
same,relative viability,NCI-H1793; first compound 8 µM,0.63
same,relative viability,BEN; first compound 0.08 µM,0.998
same,relative viability,BEN; first compound 0.253 µM,1.15
same,relative viability,BEN; first compound 0.8 µM,1.04
same,relative viability,BEN; first compound 2.53 µM,0.956
same,relative viability,BEN; first compound 8 µM,1.07
same,relative viability,NCI-H1792; first compound 0.08 µM,0.384
same,relative viability,NCI-H1792; first compound 0.253 µM,0.352
same,relative viability,NCI-H1792; first compound 0.8 µM,0.341
same,relative viability,NCI-H1792; first compound 2.53 µM,0.321
same,relative viability,NCI-H1792; first compound 8 µM,0.286
same,relative viability,NCI-H727; first compound 0.08 µM,0.64
same,relative viability,NCI-H727; first compound 0.253 µM,0.679
same,relative viability,NCI-H727; first compound 2.53 µM,0.615
same,relative viability,NCI-H727; first compound 8 µM,0.68
same,relative viability,HCC-827; first compound 0.08 µM,0.621
same,relative viability,HCC-827; first compound 0.253 µM,0.716
same,relative viability,HCC-827; first compound 0.8 µM,0.677
same,relative viability,HCC-827; first compound 2.53 µM,0.588
same,relative viability,HCC-827; first compound 8 µM,0.768
same,relative viability,LCLC-97TM1; first compound 0.08 µM,0.404
same,relative viability,LCLC-97TM1; first compound 0.253 µM,0.555
same,relative viability,LCLC-97TM1; first compound 0.8 µM,0.463
same,relative viability,LCLC-97TM1; first compound 2.53 µM,0.31
same,relative viability,LCLC-97TM1; first compound 8 µM,0.378
same,relative viability,NCI-H1650; first compound 0.08 µM,0.702
same,relative viability,NCI-H1650; first compound 0.253 µM,0.8
same,relative viability,NCI-H1650; first compound 0.8 µM,0.53
same,relative viability,NCI-H1650; first compound 2.53 µM,0.782
same,relative viability,NCI-H1650; first compound 8 µM,0.734
same,relative viability,NCI-H322M; first compound 0.08 µM,0.523
same,relative viability,NCI-H322M; first compound 0.253 µM,0.751
same,relative viability,NCI-H322M; first compound 0.8 µM,0.746
same,relative viability,NCI-H322M; first compound 2.53 µM,0.811
same,relative viability,NCI-H322M; first compound 8 µM,0.729
same,relative viability,RERF-LC-KJ; first compound 0.08 µM,1.08
same,relative viability,RERF-LC-KJ; first compound 0.253 µM,1.07
same,relative viability,RERF-LC-KJ; first compound 0.8 µM,0.9
same,relative viability,RERF-LC-KJ; first compound 2.53 µM,0.977
same,relative viability,RERF-LC-KJ; first compound 8 µM,0.843
same,relative viability,NCI-H2228; first compound 0.08 µM,0.691
same,relative viability,NCI-H2228; first compound 0.253 µM,0.869
same,relative viability,NCI-H2228; first compound 0.8 µM,0.799
same,relative viability,NCI-H2228; first compound 2.53 µM,0.83
same,relative viability,NCI-H2228; first compound 8 µM,0.733
same,relative viability,LCLC-103H; first compound 0.08 µM,0.765
same,relative viability,LCLC-103H; first compound 0.253 µM,0.776
same,relative viability,LCLC-103H; first compound 0.8 µM,0.873
same,relative viability,LCLC-103H; first compound 2.53 µM,0.736
same,relative viability,LCLC-103H; first compound 8 µM,0.71
same,relative viability,NCI-H2405; first compound 0.08 µM,0.861
same,relative viability,NCI-H2405; first compound 0.253 µM,1.04
same,relative viability,NCI-H2405; first compound 0.8 µM,0.791
same,relative viability,NCI-H2405; first compound 2.53 µM,0.8
same,relative viability,NCI-H2405; first compound 8 µM,0.936
same,relative viability,NCI-H1944; first compound 0.08 µM,0.401
same,relative viability,NCI-H1944; first compound 0.253 µM,0.401
same,relative viability,NCI-H1944; first compound 0.8 µM,0.414
same,relative viability,NCI-H1944; first compound 2.53 µM,0.43
same,relative viability,NCI-H1944; first compound 8 µM,0.397
same,relative viability,NCI-H647; first compound 0.08 µM,0.642
same,relative viability,NCI-H647; first compound 0.253 µM,0.851
same,relative viability,NCI-H647; first compound 0.8 µM,0.596
same,relative viability,NCI-H647; first compound 2.53 µM,0.452
same,relative viability,NCI-H647; first compound 8 µM,0.272
same,relative viability,LXF-289; first compound 0.08 µM,1.17
same,relative viability,LXF-289; first compound 0.253 µM,1.36
same,relative viability,LXF-289; first compound 0.8 µM,1.18
same,relative viability,LXF-289; first compound 2.53 µM,1.11
same,relative viability,LXF-289; first compound 8 µM,1.21
same,relative viability,SK-LU-1; first compound 0.08 µM,0.582
same,relative viability,SK-LU-1; first compound 0.253 µM,0.713
same,relative viability,SK-LU-1; first compound 0.8 µM,0.524
same,relative viability,SK-LU-1; first compound 2.53 µM,0.503
same,relative viability,SK-LU-1; first compound 8 µM,0.463
same,relative viability,NCI-H1395; first compound 0.08 µM,0.404
same,relative viability,NCI-H1395; first compound 0.253 µM,0.416
same,relative viability,NCI-H1395; first compound 0.8 µM,0.513
same,relative viability,NCI-H1395; first compound 2.53 µM,0.471
same,relative viability,NCI-H1395; first compound 8 µM,0.47
same,relative viability,NCI-H3122; first compound 0.08 µM,0.658
same,relative viability,NCI-H3122; first compound 0.253 µM,0.745
same,relative viability,NCI-H3122; first compound 0.8 µM,0.584
same,relative viability,NCI-H3122; first compound 2.53 µM,0.604
same,relative viability,NCI-H3122; first compound 8 µM,0.63
same,relative viability,201T; first compound 0.08 µM,0.688
same,relative viability,201T; first compound 0.253 µM,0.909
same,relative viability,201T; first compound 0.8 µM,0.861
same,relative viability,201T; first compound 2.53 µM,0.84
same,relative viability,201T; first compound 8 µM,0.703
same,relative viability,CAL-12T; first compound 0.08 µM,0.77
same,relative viability,CAL-12T; first compound 0.253 µM,0.738
same,relative viability,CAL-12T; first compound 0.8 µM,0.759
same,relative viability,CAL-12T; first compound 2.53 µM,0.731
same,relative viability,CAL-12T; first compound 8 µM,0.402
same,relative viability,NCI-H1437; first compound 0.08 µM,0.618
same,relative viability,NCI-H1437; first compound 0.253 µM,0.785
same,relative viability,NCI-H1437; first compound 0.8 µM,0.684
same,relative viability,NCI-H1437; first compound 2.53 µM,0.615
same,relative viability,NCI-H1437; first compound 8 µM,0.541
same,relative viability,NCI-H2087; first compound 0.08 µM,0.604
same,relative viability,NCI-H2087; first compound 0.253 µM,0.605
same,relative viability,NCI-H2087; first compound 0.8 µM,0.682
same,relative viability,NCI-H2087; first compound 2.53 µM,0.638
same,relative viability,NCI-H2087; first compound 8 µM,0.561
